# Biological target: T1, human M4 muscarinic acetylcholine receptor (Homo sapiens, UniProt P08173)
# T1 construct: expressed in transfected cells; host or cells: CHO-K1
# T1 sequence (P08173 1-479): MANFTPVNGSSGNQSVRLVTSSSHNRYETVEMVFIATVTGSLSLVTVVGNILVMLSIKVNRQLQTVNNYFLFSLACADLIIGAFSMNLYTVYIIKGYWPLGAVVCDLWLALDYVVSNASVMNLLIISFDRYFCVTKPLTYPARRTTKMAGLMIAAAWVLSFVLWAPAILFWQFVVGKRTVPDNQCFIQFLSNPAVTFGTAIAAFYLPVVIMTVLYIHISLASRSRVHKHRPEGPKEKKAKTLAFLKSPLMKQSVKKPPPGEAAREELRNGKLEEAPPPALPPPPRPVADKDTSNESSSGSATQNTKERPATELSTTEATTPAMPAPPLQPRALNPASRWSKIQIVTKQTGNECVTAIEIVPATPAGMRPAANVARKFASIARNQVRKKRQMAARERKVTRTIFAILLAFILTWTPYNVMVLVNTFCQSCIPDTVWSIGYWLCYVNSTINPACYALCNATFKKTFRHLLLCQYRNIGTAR
# Assay: human FLIPR-based M4 PAM assay (calcium mobilization in CHO-K1 cells with human M4 receptor and Gαqi5)
# Type: cell-based
# Conditions: inflection point of dose response curve, acetylcholine at 20% of maximum response, FLIPR Tetra, read-out: M4 PAM IP
# Protocol: (§1) In a typical experiment the M4 muscarinic acetylcholine receptor modulating activity of the compounds of the present invention was determined in accordance with the following experimental method. CHO-K1 cells stably transfected with human M4 receptor and chimeric G-protein Gαqi5 (Coward P, et al., Analytical Biochemistry, 270:242-248 (1999)) are thawed from liquid N2 storage, resuspended in growth medium, plated in black, clear bottom 384 well plates, and incubated 16-20 hours at 37° C., 5% CO2. On the day of assay, growth medium is removed, the cells are washed 2 times with wash buffer, and cells are incubated in dye loading buffer at 37° C., 5% CO2 for ˜1 hour. Following dye loading the cell plates are placed in a FLIPR Tetra instrument and while monitoring dye fluorescence (excitation […]), 10 uL of test substance at increasing concentrations is added, and fluorescence values are recorded for 4 min. Next, 10 uL of acetylcholine is added (final concentration calculated so as to achieve 20% of the maximum acetycholine response), and the fluorescence reading is continued for 3.5 min. In some cases, a third addition of acetylcholine (final concentration calculated to achieve 70% of the maximal acetylcholine response) is performed. The resulting dose response curves are fit to a 4 parameter logistic equation and the final result is determined as the inflection point (IP) of the curve
# as §1, with “CHO-K1” for “In a typical experiment the M4 muscarinic acetylcholine receptor modulating activity of the compounds of the present invention was determined in accordance with the following experimental method. CHO-K1”, “Gαqi5” for “Gαqi5 (Coward P, et al., Analytical Biochemistry, 270:242-248 (1999))”, “performed.” for “performed. The resulting dose response curves are fit to a 4 parameter logistic equation and the final result is determined as the inflection point (IP) of the curve”
row,SMILES,EC50 [nM]
1,"Cc1cc(-c2cnn(CC3(C)CCCC3)c2)c(-c2ccc3c(c2)C(=O)N(C)C3)nc1Cl [Example 38, 6-(6-chloro-5-methyl-3-(1-((1-methylcyclopentyl)methyl)-1H-pyrazol-4-yl)pyridin-2-yl)-2-methylisoindolin-1-one]",33
2,"CC1(Cn2cc(-c3cc4c(nc3-c3cnc5c(c3)C(=O)NC5)[C@@H](F)CC4)cn2)CCCC1 [Example 39B, (S)-3-(7-fluoro-3-(1-((1-methylcyclopentyl)methyl)-1H-pyrazol-4-yl)-6,7-dihydro-5H-cyclopenta[b]pyridin-2-yl)-6,7-dihydro-5H-pyrrolo[3,4-b]pyridin-5-one]",25
3,"CN1Cc2ccc(-c3nc(CO)c(F)cc3-c3cnn(CC4(C)CCCC4)c3)cc2C1=O [Example 41, 6-(5-fluoro-6-(hydroxymethyl)-3-(1-((1-methylcyclopentyl)methyl)-1H-pyrazol-4-yl)pyridin-2-yl)-2-methylisoindolin-1-one]",64
4,"CC1(Cn2cc(-c3ccc(C#N)nc3-c3ccc4c(c3)C(=O)N(CCF)C4)cn2)CCCC1 [Example 42, 6-(2-(2-fluoroethyl)-3-oxoisoindolin-5-yl)-5-(1-((1-methylcyclopentyl)methyl)-1H-pyrazol-4-yl)picolinonitrile]",37
5,"CC1(Cn2ncc(-c3ccc(C#N)nc3-c3ccc4c(c3)C(=O)N(C3CC3)C4)c2F)CCCC1 [Example 44, 6-(2-cyclopropyl-3-oxoisoindolin-5-yl)-5-(5-fluoro-1-((1-methylcyclopentyl)methyl)-1H-pyrazol-4-yl)picolinonitrile]",54
6,"CN1Cc2ccc(-c3nc(C#N)c(F)cc3-c3cnn(CC4(C)CCCC4)c3)cc2C1=O [Example 47, 3-fluoro-6-(2-methyl-3-oxoisoindolin-5-yl)-5-(1-((1-methylcyclopentyl)methyl)-1H-pyrazol-4-yl)picolinonitrile]",20
7,"CC1(Cn2cc(-c3cc(F)c(C#N)nc3-c3ccc4c(c3)C(=O)N(CC3CC3)C4)cn2)CCCC1 [Example 48, 6-(2-(cyclopropylmethyl)-3-oxoisoindolin-5-yl)-3-fluoro-5-(1-((1-methylcyclopentyl)methyl)-1H-pyrazol-4-yl)picolinonitrile]",76
8,"CC1(Cn2cc(-c3cc4c(nc3-c3ccc5c(c3)C(=O)N(CCF)C5)CCC4)cn2)CCCC1 [Example 49, 2-(2-fluoroethyl)-6-(3-(1-((1-methylcyclopentyl)methyl)-1H-pyrazol-4-yl)-6,7-dihydro-5H-cyclopenta[b]pyridin-2-yl)isoindolin-1-one]",32
9,"CN1Cc2ccc(-c3ncc(F)cc3-c3cnn(CC4(C)CCCC4)c3)cc2C1=O [Example 50, 6-(5-fluoro-3-(1-((1-methylcyclopentyl)methyl)-1H-pyrazol-4-yl)pyridin-2-yl)-2-methylisoindolin-1-one]",38
10,"CN1Cc2ccc(-c3nc(C#N)c(N)cc3-c3cnn(CC4(C)CCCC4)c3)cc2C1=O [Example 51, 3-amino-6-(2-methyl-3-oxoisoindolin-5-yl)-5-(1-((1-methylcyclopentyl)methyl)-1H-pyrazol-4-yl)picolinonitrile]",75
11,"CN1Cc2ccc(-c3nc(CF)ccc3-c3cnn(CC4(C)CCCC4)c3)cc2C1=O [Example 52, 6-(6-(fluoromethyl)-3-(1-((1-methylcyclopentyl)methyl)-1H-pyrazol-4-yl)pyridin-2-yl)-2-methylisoindolin-1-one]",40
12,"CN1Cc2ccc(-c3nc(F)ccc3-c3cnn(CC4(C)CCCC4)c3F)cc2C1=O [Example 57, 6-(6-fluoro-3-(5-fluoro-1-((1-methylcyclopentyl)methyl)-1H-pyrazol-4-yl)pyridin-2-yl)-2-methylisoindolin-1-one]",44
13,"CN1Cc2ncc(-c3nc(F)ccc3-c3cnn(CC4(C)CCCC4)c3F)cc2C1=O [Example 59, 3-(6-fluoro-3-(5-fluoro-1-((1-methylcyclopentyl)methyl)-1H-pyrazol-4-yl)pyridin-2-yl)-6-methyl-6,7-dihydro-5H-pyrrolo[3,4-b]pyridin-5-one]",14
14,CN1C(=O)c2cc(-c3nc(C#N)ccc3-c3cnn(CC4(C)CCCC4)c3)ccc2C1(C)C [Example 60],99

# Now from value to compound:
row,EC50 [nM],SMILES
1,37,"CN1Cc2ccc(-c3nc4c(cc3-c3cnn(CC5(C)CCCC5)c3)CCC4)cc2C1=O [Example 39, 2-methyl-6-(3-(1-((1-methylcyclopentyl)methyl)-1H-pyrazol-4-yl)-6,7-dihydro-5H-cyclopenta[b]pyridin-2-yl)isoindolin-1-one]"
2,58,"CC1(Cn2cc(-c3cc4c(nc3-c3cnc5c(c3)C(=O)NC5)[C@H](F)CC4)cn2)CCCC1 [Example 39A, (R)-3-(7-fluoro-3-(1-((1-methylcyclopentyl)methyl)-1H-pyrazol-4-yl)-6,7-dihydro-5H-cyclopenta[b]pyridin-2-yl)-6,7-dihydro-5H-pyrrolo[3,4-b]pyridin-5-one]"
3,49,"Cc1cc(-c2cnn(CC3(C)CCCC3)c2)c(-c2ccc3c(c2)C(=O)NC3)nc1Cl [Example 40, 6-(6-chloro-5-methyl-3-(1-((1-methylcyclopentyl)methyl)-1H-pyrazol-4-yl)pyridin-2-yl)isoindolin-1-one]"
4,20,"CN1Cc2ccc(-c3nc(C#N)ccc3-c3cnn(CC4(C)CCCC4)c3F)cc2C1=O [Example 43, 5-(5-fluoro-1-((1-methylcyclopentyl)methyl)-1H-pyrazol-4-yl)-6-(2-methyl-3-oxoisoindolin-5-yl)picolinonitrile]"
5,26,"CC1(Cn2ncc(-c3ccc(C#N)nc3-c3ccc4c(c3)C(=O)NC4)c2F)CCCC1 [Example 43A, 5-(5-fluoro-1-((1-methylcyclopentyl)methyl)-1H-pyrazol-4-yl)-6-(3-oxoisoindolin-5-yl)picolinonitrile]"
6,41,"CC1(Cn2ncc(-c3ccc(C#N)nc3-c3ccc4c(c3)C(=O)N(CC3CC3)C4)c2F)CCCC1 [Example 45, 6-(2-(cyclopropylmethyl)-3-oxoisoindolin-5-yl)-5-(5-fluoro-1-((1-methylcyclopentyl)methyl)-1H-pyrazol-4-yl)picolinonitri1e]"
7,61,"Cc1cc(-c2cnn(CC3(C)CCCC3)c2)c(-c2ccc3c(c2)C(=O)N(C)C3)nc1F [Example 53, 6-(6-fluoro-5-methyl-3-(1-((1-methylcyclopentyl)methyl)-1H-pyrazol-4-yl)pyridin-2-yl)-2-methylisoindolin-1-one]"
8,8,"CN1Cc2ncc(-c3nc(C#N)ccc3-c3cnn(CC4(C)CCCC4)c3F)cc2C1=O [Example 54, 5-(5-fluoro-1-((1-methylcyclopentyl)methyl)-1H-pyrazol-4-yl)-6-(6-methyl-5-oxo-6,7-dihydro-5H-pyrrolo[3,4-b]pyridin-3-yl)picolinonitrile]"
9,38,"CC1(Cn2cc(-c3cc4c(nc3-c3ccc5c(c3)C(=O)NC5)CCC4)cn2)CCCC1 [Example 55, 6-(3-(1-((1-methylcyclopentyl)methyl)-1H-pyrazol-4-yl)-6,7-dihydro-5H-cyclopenta[b]pyridin-2-yl)isoindolin-1-one]"
10,72,"CC1(Cn2cc(-c3cc4c(nc3-c3ccc5c(c3)C(=O)N(CCC#N)C5)CCC4)cn2)CCCC1 [Example 56, 3-(6-(3-(1-((1-methylcyclopentyl)methyl)-1H-pyrazol-4-yl)-6,7-dihydro-5H-cyclopenta[b]pyridin-2-yl)-1-oxoisoindolin-2-yl)propanenitrile]"
11,35,"CN1Cc2ncc(-c3nc(CF)ccc3-c3cnn(CC4(C)CCCC4)c3)cc2C1=O [Example 58, 3-(6-(fluoromethyl)-3-(1-((1-methylcyclopentyl)methyl)-1H-pyrazol-4-yl)pyridin-2-yl)-6-methyl-6,7-dihydro-5H-pyrrolo[3,4-b]pyridin-5-one]"

# Reference: patent publication US10933056B2, “3-(1H-pyrazol-4-yl)pyridine allosteric modulators of the M4 muscarinic acetylcholine receptor” (Merck Sharp & Dohme Corp., priority 2015, dated 2021)
